Where two headings read alike, the source gives them in different places.
Columns and labels:
[1] = system: BHK-21 cells; assay type: cell-based; conditions: 4 μg
[2] = RNA encapsulation/complexation efficiency by Ribogreen assay; assay type: physicochemical; conditions: for “Ready-to-use” S2P RNA formulation RNA complexation efficiency: 48/40.5/10/1.5 mol %, blank-LNP added to lyophilized S2P RNA (55 ug/vial), N/P 7
Experimental: (§1) In the case of a filled LNP, for example, an LNP-encapsulated S-2P RNA liquid drug product, the preparation protocol is essentially the same, except that it was an aqueous solution of S-2P RNA in citrate buffer pH 5-6 that constitutes the aqueous phase for LNP formation. The LNP-encapsulated RNA formulation is also referred to as “RNA-LNP” in this disclosure. Regarding characterization, particle size and polydispersity index (PDI) of the RNA-LNP were determined by Dynamic Light Scattering (DLS); RNA encapsulation efficiency and concentration were determined by means of Ribogreen® assay and RNA purity was determined by agarose gel electrophoresis.
(§2) The “ready-to-use” RNA product was manufactured by transferring a predetermined amount of already formed LNP in solution to a sealed vial containing the lyophilized RNA composition, followed by mixing at room temperature. The amount of LNP added per vial (e.g., 30-100 μg RNA per vial) was determined based on the molar ionizable lipid:RNA (N/P) molar ratio of 7. In this disclosure, “ready-to-use” S-2P RNA formulations (also referred to as “LNP(S-2P RNA)”) containing 30-100 μg/mL S-2P RNA were prepared, and then characterized with respect to particle size, polydispersity index, as well as RNA concentration, complexation efficiency, and purity using the same methods as described above in Example 3.

[3] = Particle size and polydispersity index (PDI) by Dynamic Light Scattering; assay type: physicochemical; conditions: for “Ready-to-use” S2P RNA formulation PDI / “Ready-to-use” S2P RNA formulation Size: 48/40.5/10/1.5 mol %, blank-LNP added to lyophilized S2P RNA (55 ug/vial), N/P 7
Experimental: (§3) Lipid nanoparticles (LNPs) were formed or formulated by rapid mixing of an ethanol phase and an aqueous phase using a microfluidic device. The aqueous phase included a 50 mM citrate buffer (pH 5.5). The ethanol phase included an ionizable lipid (as described herein), cholesterol (Jiangsu Southeast Nanomaterials), 1,2-diastearoyl-sn-glycero-3-phosphocholine (DSPC) (Jiangsu Southeast Nanomaterials) and 1,2-dimyristoyl-rac-glycero-3-methoxypolyethylene glycol-2000 (DMG-PEG2000) (SINOPEG). A series of ionizable lipids were evaluated. These four lipid components were mixed at defined molar ratios in ethanol, for instance, at a molar ratio of 48:40.5:10:1.5 (ionizable lipid:cholesterol:DSPC:DMG-PEG2000). The generated LNP particles were purified in citrate buffer (containing sucrose) and characterized with respect to particle size, polydispersity index (PDI) and ionizable lipid concentration. The LNP solution was then diluted to the target concentration and stored at 2-8° C.
as §1, §2

[4] = system: Vero E6 cells; assay type: cell-based; conditions: 4 μg
[5] = Stability of blank-LNP at 2-8° C. (particle size, PDI); assay type: physicochemical; conditions: blank-LNP 48/40.5/10/1.5 mol %
Experimental: as §3
Each generated blank-LNP formulation was added to and mixed with lyophilized S2P RNA, altogether yielding a series of “ready-to-use” S2P RNA test items containing the different ionizable lipids. The pharmaceutical characteristics (Table 3) and in vitro transfection efficiency (Table 4) of these “ready-to-use” RNA test items were compared head-to-head. In parallel, the stability profiles of these […] blank-LNP formulations (i.e. without RNA complexation) were assessed at 2-8° C. (see Table 5).
The generated fourteen blank-LNP formulations were characterized in terms of particle size and PDI, both at the end of manufacturing (T=0) and 8-week storage at 2-8° C. […] (defined as size increase ≤20 nm in 8 weeks), namely DMG-PEG2000 between at least 1-4 mol %, DSPC between at least 5-20 mol %, ionizable lipid between at least 30-70 mol % and cholesterol between at least 18.5-58.5 mol %.

[6] = ionizable lipid/Chol/DSPC/DMG-PEG 20/57.0/20/3.0 mol %
[7] = ionizable lipid/Chol/DSPC/DMG-PEG 30/55.0/12/3.0 mol %
[8] = ionizable lipid/Chol/DSPC/DMG-PEG 40/48.5/10/1.5 mol %
[9] = ionizable lipid/Chol/DSPC/DMG-PEG 45/43.5/10/1.5 mol %
[10] = ionizable lipid/Chol/DSPC/DMG-PEG 50/38.5/10/1.5 mol %
[11] = ionizable lipid/Chol/DSPC/DMG-PEG 60/30.0/8.5/1.5 mol %
[12] = ionizable lipid/Chol/DSPC/DMG-PEG 70/22.5/6.0/1.5 mol %
[13] = ionizable lipid/Chol/DSPC/DMG-PEG 70/22.5/6/1.5 mol %
[14] = blank-LNP, 48/40.5/10/1.5 mol % ionizable lipid/cholesterol/DSPC/DMG-PEG
[15] = ready-to-use S2P RNA, 48 hours post transfection, 48/40.5/10/1.5 mol %

CCCCCCCCCOC(=O)CCCCCCCOc1ccc(OCCCCCCCC(=O)OC(CCCCCCCC)CCCCCCCC)cc1COC(=O)CCCN(C)C
RBD expression in BHK-21 cells [1, 6]: 0.082 ng/mL
RBD expression in BHK-21 cells [1, 7]: 1.655 ng/mL
RBD expression in BHK-21 cells [1, 8]: 1.517 ng/mL
RBD expression in BHK-21 cells [1, 9]: 2.090 ng/mL
RBD expression in BHK-21 cells [1, 10]: 1.887 ng/mL
RBD expression in BHK-21 cells [1, 11]: 0.812 ng/mL
RBD expression in BHK-21 cells [1, 12]: <LOD
“Ready-to-use” S2P RNA formulation RNA complexation efficiency [2]: 42%
“Ready-to-use” S2P RNA, RNA complex. efficiency [2, 6]: 54%
“Ready-to-use” S2P RNA, RNA complex. efficiency [2, 7]: 61%
“Ready-to-use” S2P RNA, RNA complex. efficiency [2, 8]: 51%
“Ready-to-use” S2P RNA, RNA complex. efficiency [2, 9]: 50%
“Ready-to-use” S2P RNA, RNA complex. efficiency [2, 10]: 48%
“Ready-to-use” S2P RNA, RNA complex. efficiency [2, 11]: 44%
“Ready-to-use” S2P RNA, RNA complex. efficiency [2, 13]: 40%
“Ready-to-use” S2P RNA formulation PDI [3]: 0.12
“Ready-to-use” S2P RNA formulation Size [3]: 173 nm
Blank-LNP PDI [3, 14]: 0.13
Blank-LNP Size [3, 14]: 88 nm
Blank-LNP PDI [3, 6]: 0.18
Blank-LNP Size [3, 6]: 82 nm
“Ready-to-use” S2P RNA PDI [3, 6]: 0.21
“Ready-to-use” S2P RNA Size [3, 6]: 157 nm
Blank-LNP PDI [3, 7]: 0.2
Blank-LNP Size [3, 7]: 75 nm
“Ready-to-use” S2P RNA PDI [3, 7]: 0.21
“Ready-to-use” S2P RNA Size [3, 7]: 125 nm
Blank-LNP PDI [3, 8]: 0.12
Blank-LNP Size [3, 8]: 90 nm
“Ready-to-use” S2P RNA PDI [3, 8]: 0.18
“Ready-to-use” S2P RNA Size [3, 8]: 169 nm
Blank-LNP PDI [3, 9]: 0.04
Blank-LNP Size [3, 9]: 87 nm
“Ready-to-use” S2P RNA PDI [3, 9]: 0.12
“Ready-to-use” S2P RNA Size [3, 9]: 151 nm
Blank-LNP PDI [3, 10]: 0.11
Blank-LNP Size [3, 10]: 83 nm
“Ready-to-use” S2P RNA PDI [3, 10]: 0.13
“Ready-to-use” S2P RNA Size [3, 10]: 147 nm
Blank-LNP PDI [3, 11]: 0.15
Blank-LNP Size [3, 11]: 76 nm
“Ready-to-use” S2P RNA PDI [3, 11]: 0.13
“Ready-to-use” S2P RNA Size [3, 11]: 143 nm
Blank-LNP PDI [3, 13]: 0.21
Blank-LNP Size [3, 13]: 77 nm
“Ready-to-use” S2P RNA PDI [3, 13]: 0.16
“Ready-to-use” S2P RNA Size [3, 13]: 146 nm
RBD expression in Vero E6 cells [4, 6]: <LOD
RBD expression in Vero E6 cells [4, 7]: 0.129 ng/mL
RBD expression in Vero E6 cells [4, 8]: 1.204 ng/mL
RBD expression in Vero E6 cells [4, 9]: 1.842 ng/mL
RBD expression in Vero E6 cells [4, 10]: 1.633 ng/mL
RBD expression in Vero E6 cells [4, 11]: 1.239 ng/mL
RBD expression in Vero E6 cells [4, 12]: 0.0939 ng/mL
PDI, T = 1 month [5]: 0.09
Size, T = 1 month [5]: 88 nm
Change in size (nm) vs. T0, T = 2 weeks [5]: −9 nm
PDI, T = 2 weeks [5]: 0.06
Size, T = 2 weeks [5]: 79 nm
PDI, T = 0 [5]: 0.13
Size, T = 0 [5]: 88 nm

CC/C=C/CCCC(CCC/C=C/CC)OC(=O)CCCCCCCC(CCCCCCCC(=O)OC/C=C/CCCCCC)COC(=O)CCCN(C)C (stereo not drawn) [Lipid #10]
RBD expression in BHK-21 cells [1, 15]: 0.33 ng/mL
“Ready-to-use” S2P RNA formulation RNA complexation efficiency [2]: 34%
“Ready-to-use” S2P RNA formulation PDI [3]: 0.21
“Ready-to-use” S2P RNA formulation Size [3]: 204 nm
Blank-LNP PDI [3, 14]: 0.05
Blank-LNP Size [3, 14]: 91 nm
RBD expression in Vero E6 cells [4, 15]: 0.25 ng/mL
Change in size (nm) vs. T0, T = 1 month [5]: +29 nm
PDI, T = 1 month [5]: 0.21
Size, T = 1 month [5]: 120 nm
Change in size (nm) vs. T0, T = 2 weeks [5]: +16 nm
PDI, T = 2 weeks [5]: 0.11
Size, T = 2 weeks [5]: 107 nm
PDI, T = 0 [5]: 0.05
Size, T = 0 [5]: 91 nm

CCCCCCCCOC/C=C\COC(=O)CCCCCCCCC(CCCCCCCCC(=O)OC(CCCCCCCC)CCCCCCCC)OC(=O)CCCN(C)C (stereo not drawn) [Lipid #12]
RBD expression in BHK-21 cells [1, 15]: 0.19 ng/mL
“Ready-to-use” S2P RNA formulation RNA complexation efficiency [2]: 27%
“Ready-to-use” S2P RNA formulation PDI [3]: 0.14
“Ready-to-use” S2P RNA formulation Size [3]: 172 nm
Blank-LNP PDI [3, 14]: 0.04
Blank-LNP Size [3, 14]: 85 nm
RBD expression in Vero E6 cells [4, 15]: <LOD
Change in size (nm) vs. T0, T = 1 month [5]: +12 nm
PDI, T = 1 month [5]: 0.11
Size, T = 1 month [5]: 97 nm
Change in size (nm) vs. T0, T = 2 weeks [5]: +8 nm
PDI, T = 2 weeks [5]: 0.06
Size, T = 2 weeks [5]: 93 nm
PDI, T = 0 [5]: 0.04
Size, T = 0 [5]: 85 nm

CCCCCCCCCCC(CCCCCCCCCC)C(=O)OCCCCCCOc1ccc(OCCCCCCOC(=O)C(CCCCCCCCCC)CCCCCCCCCC)c(COC(=O)CCCN(C)C)c1 [Lipid #8]
RBD expression in BHK-21 cells [1, 15]: <LOD
“Ready-to-use” S2P RNA formulation RNA complexation efficiency [2]: 34%
“Ready-to-use” S2P RNA formulation PDI [3]: 0.11
“Ready-to-use” S2P RNA formulation Size [3]: 130 nm
Blank-LNP PDI [3, 14]: 0.13
Blank-LNP Size [3, 14]: 86 nm
RBD expression in Vero E6 cells [4, 15]: <LOD
PDI, T = 1 month [5]: 0.17
Size, T = 1 month [5]: 90 nm
Change in size (nm) vs. T0, T = 2 weeks [5]: −3 nm
PDI, T = 2 weeks [5]: 0.07
Size, T = 2 weeks [5]: 83 nm
PDI, T = 0 [5]: 0.13
Size, T = 0 [5]: 86 nm

CCCCCCOCCC/C=C/COC(=O)CCCCCCCCC(CCCCCCCCC(=O)OC/C=C/CCCOCCCCCC)OC(=O)CCCN(C)C [Lipid #11]
RBD expression in BHK-21 cells [1, 15]: 0.52 ng/mL
“Ready-to-use” S2P RNA formulation RNA complexation efficiency [2]: 34%
“Ready-to-use” S2P RNA formulation PDI [3]: 0.11
“Ready-to-use” S2P RNA formulation Size [3]: 266 nm
Blank-LNP PDI [3, 14]: 0.09
Blank-LNP Size [3, 14]: 165 nm
RBD expression in Vero E6 cells [4, 15]: 0.20 ng/mL
Change in size (nm) vs. T0, T = 1 month [5]: +59 nm
PDI, T = 1 month [5]: 0.06
Size, T = 1 month [5]: 224 nm
Change in size (nm) vs. T0, T = 2 weeks [5]: +42 nm
PDI, T = 2 weeks [5]: 0.04
Size, T = 2 weeks [5]: 207 nm
PDI, T = 0 [5]: 0.09
Size, T = 0 [5]: 165 nm

CCCCCC/C=C/COC(=O)CCCCCCCCC(CCCCCCCCC(=O)OC/C=C/CCCCCC)OC(=O)CCCN(C)C [Lipid #9]
RBD expression in BHK-21 cells [1, 15]: 0.50 ng/mL
“Ready-to-use” S2P RNA formulation RNA complexation efficiency [2]: 34%
“Ready-to-use” S2P RNA formulation PDI [3]: 0.18
“Ready-to-use” S2P RNA formulation Size [3]: 280 nm
Blank-LNP PDI [3, 14]: 0.09
Blank-LNP Size [3, 14]: 207 nm
RBD expression in Vero E6 cells [4, 15]: 0.16 ng/mL
Change in size (nm) vs. T0, T = 1 month [5]: +22 nm
PDI, T = 1 month [5]: 0.10
Size, T = 1 month [5]: 229 nm
Change in size (nm) vs. T0, T = 2 weeks [5]: +7 nm
PDI, T = 2 weeks [5]: 0.05
Size, T = 2 weeks [5]: 214 nm
PDI, T = 0 [5]: 0.09
Size, T = 0 [5]: 207 nm
